From patent publication US20220370471A1, “COMPOSITION AND METHOD FOR TREATMENT OF HIPPOCAMPAL SYNAPSE DYSFUNCTION AND COGNITIVE DEFICITS IN ALZHEIMER'S DISEASE” (BOARD OF REGENTS, THE UNIVERSITY OF TEXAS SYSTEM, priority 2019, published 2022)

How the values were obtained:
5×FAD mice [1] = experiment: Microglia density, morphology and plaque-associated microglia analysis; format: in vivo, mouse
Experimental: Immunocytochemistry. Frozen sections were prepared as previously described. […] Nuclei were labeled with 4′,6-diamidino-2-phenylindole (DAPI, Thermo Fisher Scientific, #R37606, 1 drop/500 ul) as needed. Images were collected on a Nikon confocal microscope. Microglia morphology and plaque-associated microglia density analysis. Analysis of microglia morphology was done by producing three-dimensional (3D) reconstructions of cells using Imaris software (Bitplane, Imaris×64 9.0.2)[49]. Using the Filament algorithm, the software was able to calculate the length of each cell dendrite and number of branch points. This was done by first selecting the appropriate region of interest for the desired cell. If there were nearby cells, the somas of those cells were included in the region of interest. Since the software builds the dendrites based on extension from the largest set diameter, doing this can prevent unwanted filaments bridging the dendrites of two or more cells. The dendrite diameter parameters were set with the largest diameter being the soma size and the smallest diameter at 0.5 μm. To further prevent unwanted connections, the option to ‘Remove disconnected segments’ was used in the dendrite building menu with the distance threshold set at 5 μm. After the algorithm finished detecting the dendrites, non-specifically detected filaments were manually trimmed. Dendrite length and branch points were then calculated by the software. Plaque-associated microglia density was analyzed by using NIS element software. Microglia were counted under the following rule: if more than 50% of the microglia soma was within a plaque, it was counted as one plaque-associated microglia. Plaque volume was analyzed as described in the previous section (amyloid plaque deposition analysis).

Ghsr1α/Drd1 complex = biological target: T1, Ghsr1α/Drd1 complex (Mus musculus, UniProt Q61616+Q99P50); experiment: Duolink PLA of Ghsr1α/Drd1 complex in cultured hippocampal neurons; format: cell-based; conditions: oligomeric Aβ42 1 μM, 24 hours; 1.5 μM MK0677, 2 μM SKF81297, or in combination
T1 construct: endogenous in cells; host or cells: primary mouse hippocampal neurons (P0-1, DIV14)
Text: (§1) Duolink In Situ Proximity Ligation Assay (PLA). […] PLA analysis was referred to previous report (66 67). NIH Image J was used for PLA signal quantification.
(§2) Agonist treatment on primary cultured neurons. […] The exposure was followed by immunostaining to examine the effects of Ghsr1α/Drd1 co-activation on Aβ induced synaptic loss or Ghsr1α/Drd1, Aβ/Ghsr1α interaction as described in previous sections.

[2] = Mouse body weight during treatment; format: in vivo; conditions: MK0677 1.5 mg/kg, daily i.p.
Text: Agonist treatment on mice.
Mice and agonist treatment.

5×FAD mice [3] = experiment: Morris water maze test; conditions: MK0677 1.5 mg/kg, daily i.p., one month
Experimental: Mice and agonist treatment. […] Mice were used in pairs of age-matched non-transgenic mice (non-TG). Genotypes of animals were confirmed using PCR and/or amyloid plaque staining. The number of mice used was determined by previous data and calculations to ensure that the minimal number of mice as required was used in these experiments. […] Mouse body weight was recorded every five days until euthanasia. After the 1-month treatment, the mice were subjected to the Morris water maze behavioral test and then euthanized for tissue collection following IACUC-approved procedures.
Mouse behavioral test. The Morris water maze test was performed as previously described in order to test changes in mouse spatial learning and memory [3, 50]. Mice were randomly grouped by gender, genotypes and treatments (which the experimenter was blind to) and then transferred to the testing environment at least 0.5 hours before tests. During the test, mice were trained to find a hidden platform (20 cm diameter) in an open swimming pool (200 cm diameter) filled with 21° C. water (non-toxic white dye was used to hide the platform). Four trials were performed each day for 12 days. Each trial started at a different position (NW, N, E, SE) while the platform was kept in the same location (SW). […] Probe results were analyzed using the platform location crossed frequency value.

5×FAD mice [4] = conditions: recent study, higher dose of MK0677; cited from earlier work
5×FAD mice [5] = experiment: Synaptic density in hippocampal CA1 region of treated mice; format: in vivo, mouse; conditions: MK0677 1.5 mg/kg, daily i.p., one month
Experimental: (§3) Immunocytochemistry. […] NIS element software was used for image analysis. “Objective Count” dialog was used for intensity measurement. […] The overlapped dots represent synapses.
Synaptic density analysis. For synaptic density analysis, vesicular glutamate transporter 1(vGlutl)- and postsynaptic density 95 (PSD95)-stained channels were saved as two binary layers, the threshold for each channel defined separately and then applied to all the images. The overlapping areas were analyzed by using the “AND” operation in the “Binary Operation” dialogs of NIS element software. Hippocampal volume was measured as described in the previous section (amyloid plaque deposition analysis). The overlapping dots represent synapses and average synapse number per selected area volume was calculated to represent synaptic density.

5×FAD mice [6] = experiment: Amyloid plaque deposition analysis (hippocampus and cortex); format: in vivo, mouse
Experimental: Immunocytochemistry. Frozen sections were prepared as previously described. […] Nuclei were labeled with 4′,6-diamidino-2-phenylindole (DAPI, Thermo Fisher Scientific, #R37606, 1 drop/500 ul) as needed. Images were collected on a Nikon confocal microscope. Amyloid plaque deposition analysis. For amyloid plaque deposition analysis, amyloid plaque channel was subjected to “Binary” then “Define Threshold” in NIS element software. The threshold was set to include all the positive staining and the same setting was applied to all images. Volume measurement was then performed for all the plaques as well as each single plaque in both the hippocampal and cortical areas using the ROI selection option. Amyloid plaque-occupied percentage in the hippocampus or cortex and the average individual plaque volume was used to compare amyloid plaque deposition between 5×FAD saline and MK0677 treatment groups.

hippocampal neurons = experiment: Synaptic density (vGLUT1/PSD95) in cultured hippocampal neurons; format: cell-based, mouse
Experimental: as §3
Primary hippocampal neuron culture. Hippocampal neuron cultures were prepared as previously described (15). In brief, mouse hippocampi were dissected from postnatal day 0-1 pups in cold HBSS. Cells were dissociated by using 0.025% trypsin at 37° C. for 15 minutes, followed by 10 times homogenization in ice cold DMEM. Dissociated cells were then passed through a 100 μm cell strainer (Corning) and centrifuged for 5 minutes at 210×g. The pellet was gently resuspended in neuron culture medium (Neurobasal A with 2% B27 supplement, 0.5 mM L-glutamine, Invitrogen) and plated on poly-D-lysine (Sigma-Aldrich) coated Lab-Tek chamber slides (Nunc, 177445) with appropriate densities.
Agonist treatment on primary cultured neurons. At 14 days in vitro (DIV14) hippocampal neurons were exposed to the synthetic growth hormone secretagogue receptor agonist MK0677 (Tocris, #5272, 1.5 μM) the dopamine D1-like receptor agonist SKF81297 (Sigma-Aldrich, #S143, 2 μM) or a mixture of MK0677 and SKF81297 for 5 minutes. The exposure was followed by immunostaining to examine the effects of Ghsr1α/Drd1 co-activation on Aβ induced synaptic loss or Ghsr1α/Drd1, Aβ/Ghsr1α interaction as described in previous sections.

Ghsr1α = biological target: T2, Ghsr1α (Mus musculus, UniProt Q99P50, INS247CCPGCC); experiment: FlAsH-based FRET assay of Ghsr1α activity in HEK 293T cells; format: cell-based; conditions: 50 μM; Ghsr1α FlAsH/ECFP-expressing HEK 293T cells
T2 construct: Mouse full length Ghsr1α cDNA (NCBI Gene ID: 208188) was purchased from OriGene (MR226073); expressed in transfected cells; host or cells: HEK 293T
Text: FlAsH-based FRET was created by structural dynamics of Ghsr1α with FlAsH in the intercellular loop 3 and enhanced cyan fluorescent protein (ECFP) in the C-terminus (Ghsr1α^FlAsH/ECFP).
FlAsH-based FRET. […] The CCPGCC motif which has higher binding affinity for FlAsH was inserted in the third intracellular loop between Va1247 and Gly248 of Ghsr1α cDNA or between Thr245 and Gly246 of Drd1 cDNA. […] Fluorescence signals were monitored on microplate reader (BioTek Cytation 5) before and after the treatments. […] Area scanning read mode was used to correct artificial inaccuracies. The FRET ratio (FFlAsH/FECFP) was calculated according to equation as previously reported (69):
The terms a and b are correction factors for the two leakages mentioned above. a is the ratio of the direct emission of donor, ECFP at 535 nm, to its emission at 475 nm when excited at 425 nm which was calculated with cells transfected with pcDNA3-Ghsr1α^FlAsH/ECFP or pcDNA3-Drd1^FlAsH/ECFP only. b is the ratio of the direct emission of FlAsH at 535 nm when excited at 425 nm to its emission at 535 nm when excited at 500 nm which was calculated with FlAsH labeled untransfected cells.

Aβ/Ghsr1α complex = biological target: T3, Aβ/Ghsr1α complex (Mus musculus, UniProt Q99P50); experiment: Duolink PLA of Aβ/Ghsr1α complex in cultured hippocampal neurons; format: cell-based; conditions: oligomeric Aβ42 1 μM, 24 hours; 1.5 μM MK0677, 2 μM SKF81297, or in combination
T3 construct: endogenous in cells; host or cells: primary mouse hippocampal neurons; Aβ42 peptide purchased (GenicBio, A-43-T-1000)
Text: as §1, §2

[7] = MK0677 1.5 mg/kg, daily i.p., one month
[8] = saline- vs MK0677-treated 5×FAD mice

T3 sequence (Q99P50 whole entry): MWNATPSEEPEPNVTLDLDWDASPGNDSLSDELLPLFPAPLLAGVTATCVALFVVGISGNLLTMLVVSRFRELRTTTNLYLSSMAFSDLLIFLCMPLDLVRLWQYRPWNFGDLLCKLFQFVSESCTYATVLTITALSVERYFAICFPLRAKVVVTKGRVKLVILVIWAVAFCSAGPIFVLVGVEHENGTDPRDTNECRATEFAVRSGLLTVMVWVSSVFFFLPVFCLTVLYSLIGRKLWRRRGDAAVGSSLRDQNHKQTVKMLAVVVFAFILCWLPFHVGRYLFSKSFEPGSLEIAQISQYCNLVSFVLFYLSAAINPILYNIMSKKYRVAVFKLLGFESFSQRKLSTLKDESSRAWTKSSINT
T3 sequence (Q61616 whole entry, further chain): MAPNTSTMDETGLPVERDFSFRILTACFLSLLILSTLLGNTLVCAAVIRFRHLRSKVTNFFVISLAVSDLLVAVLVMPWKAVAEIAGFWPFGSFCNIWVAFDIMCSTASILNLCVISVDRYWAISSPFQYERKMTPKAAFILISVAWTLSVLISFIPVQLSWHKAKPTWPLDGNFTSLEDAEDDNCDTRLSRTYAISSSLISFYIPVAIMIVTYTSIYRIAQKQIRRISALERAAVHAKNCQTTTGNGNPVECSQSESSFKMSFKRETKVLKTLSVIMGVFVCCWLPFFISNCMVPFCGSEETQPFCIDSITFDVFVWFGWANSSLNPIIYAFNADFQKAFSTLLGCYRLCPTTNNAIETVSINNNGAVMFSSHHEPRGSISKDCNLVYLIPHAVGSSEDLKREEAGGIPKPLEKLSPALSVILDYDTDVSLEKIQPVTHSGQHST
T1 sequence (Q99P50 whole entry): as the sequence (Q99P50 whole entry) above
T1 sequence (Q61616 whole entry): as the sequence (Q61616 whole entry, further chain) above
T2 sequence (Q99P50 with tags, fused parts or gaps INS247CCPGCC): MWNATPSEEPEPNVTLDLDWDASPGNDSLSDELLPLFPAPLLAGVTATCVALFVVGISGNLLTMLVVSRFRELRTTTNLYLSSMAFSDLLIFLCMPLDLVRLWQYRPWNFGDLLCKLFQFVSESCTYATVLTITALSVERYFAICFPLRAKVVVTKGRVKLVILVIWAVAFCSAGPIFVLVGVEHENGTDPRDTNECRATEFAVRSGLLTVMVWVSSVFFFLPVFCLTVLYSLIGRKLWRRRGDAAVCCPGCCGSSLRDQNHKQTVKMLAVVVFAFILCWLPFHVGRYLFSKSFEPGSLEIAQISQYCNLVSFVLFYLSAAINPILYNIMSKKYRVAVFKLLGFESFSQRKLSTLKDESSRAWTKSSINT

SMILES: CC(C)(N)C(=O)N[C@H](COCc1ccccc1)C(=O)N1CCC2(CC1)CN(S(C)(=O)=O)c1ccccc12 [MK0677]
- increased microglial density in the hippocampus, 5×FAD mice (5×FAD mice [1]; [7]): not prevented
- microglia density, non-TG saline vs MK0677 (5×FAD mice [1]; [7]): no significant difference
- density of plaque-associated microglia, neocortex (5×FAD mice [1]; MK0677-treated 5×FAD mice): failed to show any influence
- density of total microglia, neocortex (5×FAD mice [1]; MK0677-treated 5×FAD mice): failed to show any influence
- density of plaque-associated microglia, hippocampus (5×FAD mice [1]; [8]): no significant difference
- microglia length of total process (5×FAD mice [1]; [8]): no significant difference
- microglia number of branch points (5×FAD mice [1]; [8]): no significant difference
- Ghsr1α/Drd1 complex formation (Ghsr1α/Drd1 complex): not the agonists alone
- mouse body weight [2]: did not affect mouse body weight
- spatial reference learning and memory (genotypic cognitive impairment) (5×FAD mice [3]): failed to show any protective effect
- neocortical Aβ plaques in young 5×FAD mice (5×FAD mice [4]): lowered neocortical Aβ plaques
- synaptic density, non-TG saline vs MK0677 (5×FAD mice [5]): no significant difference
- synaptic loss in CA1 region, 5×FAD mice (5×FAD mice [5]): not significantly attenuated
- size of each single Aβ plaque, hippocampus (5×FAD mice [6]; 5×FAD mice, MK0677 1.5 mg/kg, daily i.p., 30 days): did not significantly alter
- single plaque size, neocortex (5×FAD mice [6]; MK0677-treated 5×FAD mice): failed to show any influence
- total plaque-occupied volume, neocortex (5×FAD mice [6]; MK0677-treated 5×FAD mice): failed to show any influence
- synaptic density / oligomeric Aβ42-induced synapse loss (hippocampal neurons; oligomeric Aβ42 1 μM, 24 hours, 1.5 μM MK0677, 2 μM SKF81297, or in combination): did not mitigate
- synaptic density, agonist alone (hippocampal neurons; without oligomeric Aβ42, MK0677 at doses greater than 1.5 μM, SKF81297 2 μM): substantially promoted synaptic formation
- FRET ratio (FFlAsH/FECFP), agonist-induced Ghsr1α activation (Ghsr1α): induced a decrease in FRET ratio
- Aβ/Ghsr1α complex formation (Aβ/Ghsr1α complex): not MK0677 or SKF81297 alone
